Molecular target: T1, human RXFP1 (Homo sapiens, UniProt Q9HBX9)
T1 construct: expressed in transfected cells
T1 sequence (Q9HBX9 1-757): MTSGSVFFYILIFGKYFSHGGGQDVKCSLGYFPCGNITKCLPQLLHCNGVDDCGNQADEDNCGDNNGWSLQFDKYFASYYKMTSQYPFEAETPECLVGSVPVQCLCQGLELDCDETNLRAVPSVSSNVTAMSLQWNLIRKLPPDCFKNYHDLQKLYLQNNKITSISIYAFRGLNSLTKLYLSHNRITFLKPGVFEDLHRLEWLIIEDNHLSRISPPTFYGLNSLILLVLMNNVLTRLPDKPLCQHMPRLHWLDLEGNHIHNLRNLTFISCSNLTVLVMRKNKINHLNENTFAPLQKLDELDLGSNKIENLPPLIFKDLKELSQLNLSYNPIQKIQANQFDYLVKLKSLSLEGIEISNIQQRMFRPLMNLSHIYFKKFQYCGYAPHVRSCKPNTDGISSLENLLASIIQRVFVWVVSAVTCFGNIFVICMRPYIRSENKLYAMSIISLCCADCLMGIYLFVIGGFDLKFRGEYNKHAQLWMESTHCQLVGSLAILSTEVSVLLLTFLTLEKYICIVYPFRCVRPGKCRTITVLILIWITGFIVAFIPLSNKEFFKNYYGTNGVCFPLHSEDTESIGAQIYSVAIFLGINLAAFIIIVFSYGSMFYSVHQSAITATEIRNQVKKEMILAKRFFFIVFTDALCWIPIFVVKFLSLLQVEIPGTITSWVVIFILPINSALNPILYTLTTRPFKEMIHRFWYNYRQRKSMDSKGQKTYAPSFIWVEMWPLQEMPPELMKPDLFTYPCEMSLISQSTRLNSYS
Assay: hRXFP1 HEK293 cAMP assay (HTRF)
Type: cell-based
Conditions: HEK293 cells stably expressing human RXFP1
Description: RXFP1 Cyclic Adenosine Monophosphate (cAMP) Assays. Human embryonic kidney cells 293 (HEK293) cells and HEK293 cells stably expressing human RXFP1, were cultured in MEM medium supplemented with 10% qualified FBS, and 300 μg/ml hygromycin (Life Technologies). Cells were dissociated and suspended in assay buffer. The assay buffer was HBSS buffer (with calcium and magnesium) containing 20 mM HEPES, 0.05% BSA, and 0.5 mM IBMX. Cells (3000 cells per well, except 1500 cell per well for HEK293 cells stably expressing human RXFP1) were added to 384-well Proxiplates (Perkin-Elmer). Cells were immediately treated with test compounds in DMSO (2% final) at final concentrations in the range of 0.010 nM to 50 μM. Cells were incubated for 30 min at room temperature. The level of intracellular cAMP was determined using the HTRF HiRange cAMP assay reagent kit (Cisbio) according to manufacturer's instructions. Solutions of cryptate conjugated anti-cAMP and d2 fluorophore-labelled cAMP were made in a supplied lysis buffer separately. Upon completion of the reaction, the cells were lysed with equal volume of the d2-cAMP solution and anti-cAMP solution. After a 1 h room temperature incubation, time-resolved fluorescence intensity was measured using the Envision (Perkin-Elmer) at 400 nm excitation and dual emission at 590 nm and 665 nm. A calibration curve was constructed with an external cAMP standard at concentrations ranging from 2.7 μM to 0.1 μM by plotting the fluorescent intensity ratio from 665 nm emission to the intensity from the 590 nm emission against cAMP concentrations. The potency and activity of a compound to […] cAMP production was then determined by fitting to a 4-parametric logistic equation from a plot of cAMP level versus compound concentrations.
The examples disclosed below were tested in the human RXFP1 (hRXFP1) HEK293 cAMP assay described above and found to have agonist activity. Tables 1-3, lists EC50 values in the hRXFP1 HEK293 cAMP assay measured for the examples.

[1] = phenylcyclohexyl (tetraline) examples

EC50 [1]	SMILES	also measured
860 nM	COc1ccc(-c2cc([C@H](O)C(F)(F)F)ccc2F)cc1C(=O)Nc1cc2c(cc1C(=O)Nc1ccc(F)c(C(F)(F)F)c1)CCCC2 [Example 4, (S)—N-(4-fluoro-3-(trifluoromethyl)phenyl)-3-(2′-fluoro-4-methoxy-5′-(2,2,2-trifluoro-1-hydroxyethyl)-[1,1′-biphenyl]-3-carboxamido)-5,6,7,8-tetrahydronaphthalene-2-carboxamide]	
	COc1ccc(-c2cc(C(NC(=O)C3CCOCC3)C(=O)O)ccc2F)cc1C(=O)Nc1cc2c(cc1C(=O)Nc1ccc(F)c(C(F)(F)F)c1)CCC2 (centres unmarked) [Example 25, 2-(6-fluoro-3′-((6-((4-fluoro-3-(trifluoromethyl)phenyl)carbamoyl)-2,3-dihydro-1H-inden-5-yl)carbamoyl)-4′-methoxy-[1,1′-biphenyl]-3-yl)-2-(tetrahydro-2H-pyran-4-carboxamido)acetic acid]	EC50 (phenylcyclopentyl examples): 11 nM
2300 nM	COc1ccc(-c2cc(C(N)C(=O)O)ccc2F)cc1C(=O)Nc1cc2c(cc1C(=O)Nc1ccc(F)c(C(F)(F)F)c1)CCCC2 (single isomer, unassigned) [Example 3, 2-amino-2-(6-fluoro-3′-((3-((4-fluoro-3-(trifluoromethyl)phenyl)carbamoyl)-5,6,7,8-tetrahydronaphthalen-2-yl)carbamoyl)-4′-methoxy-[1,1′-biphenyl]-3-yl)acetic acid]	
1.8 nM	COc1ccc(-c2cc(C(NC(=O)C3CCOCC3)C(=O)O)ccc2F)cc1C(=O)Nc1cc2c(cc1C(=O)Nc1ccc(F)c(C(F)(F)F)c1)CCCC2 (single isomer, unassigned) [Example 2, 2-(6-fluoro-3′-((3-((4-fluoro-3-(trifluoromethyl)phenyl)carbamoyl)-5,6,7,8-tetrahydro-naphthalen-2-yl)carbamoyl)-4′-methoxy-[1,1′-biphenyl]-3-yl)-2-(tetrahydro-2H-pyran-4-carboxamido)acetic acid]	
	COc1ccc(-c2cc(C(=O)O)ccc2F)cc1C(=O)Nc1cc2c(cc1C(=O)Nc1ccc(F)c(C(F)(F)F)c1)CCC2 [Example 24, 6-fluoro-3′-((6-((4-fluoro-3-(trifluoromethyl)phenyl)carbamoyl)-2,3-dihydro-1H-inden-5-yl)carbamoyl)-4′-methoxy-[1,1′-biphenyl]-3-carboxylic acid]	EC50 (phenylcyclopentyl examples): 3440 nM
3700 nM	COc1ccc(C2=NOC3CNCC23)cc1C(=O)Nc1cc2c(cc1C(=O)Nc1ccc(F)c(C(F)(F)F)c1)CCCC2 (mixture of isomers) [Example 15, N-(4-fluoro-3-(trifluoromethyl)phenyl)-3-(2-methoxy-5-(3a,5,6,6a-tetrahydro-4H-pyrrolo[3,4-d]isoxazol-3-yl)benzamido)-5,6,7,8-tetrahydronaphthalene-2-carboxamide]	
	COc1ccc(C2=NOC3CC(CO)CC23)cc1C(=O)Nc1cc2c(cc1C(=O)Nc1ccc(F)c(C(F)(F)F)c1)CCC2=O (single isomer, unassigned) [Example 28, N-(4-fluoro-3-(trifluoromethyl)phenyl)-6-(5-(5-(hydroxymethyl)-3a,5,6,6a-tetrahydro-4H-cyclopenta[d]isoxazol-3-yl)-2-methoxybenzamido)-1-oxo-2,3-dihydro-1H-indene-5-carboxamide]	EC50 (phenylcyclopentyl examples): 160 nM
	COc1ccc(-c2cc(C(=O)O)ccc2F)cc1C(=O)Nc1cc2c(cc1C(=O)Nc1ccc(F)c(C(F)(F)F)c1)CCC2=O [Example 26, 6-fluoro-3′-((6-((4-fluoro-3-(trifluoromethyl)phenyl)carbamoyl)-3-oxo-2,3-dihydro-1H-inden-5-yl)carbamoyl)-4′-methoxy-[1,1′-biphenyl]-3-carboxylic acid]	EC50 (phenylcyclopentyl examples): 230 nM
1300 nM	COc1ccc(-c2cnn(CC(=O)O)c2)cc1C(=O)Nc1cc2c(cc1C(=O)Nc1ccc(F)c(C(F)(F)F)c1)CCCC2 [Example 19, 2-(4-(3-((3-((4-fluoro-3-(trifluoromethyl)phenyl)carbamoyl)-5,6,7,8-tetrahydronaphthalen-2-yl)carbamoyl)-4-methoxyphenyl)-1H-pyrazol-1-yl)acetic acid]	
	COc1ccc(-c2cc(C(O)C(=O)O)ccc2F)cc1C(=O)Nc1cc2c(cc1C(=O)Nc1ccc(F)c(C(F)(F)F)c1)CC2 (centres unmarked) [Example 23, 2-(6-fluoro-3′-((4-((4-fluoro-3-(trifluoromethyl)phenyl)carbamoyl)bicyclo[4.2.0]octa-1,3,5-trien-3-yl)carbamoyl)-4′-methoxy-[1,1′-biphenyl]-3-yl)-2-hydroxyacetic acid]	EC50 (phenylcyclobutane examples): 660 nM
82 nM	COc1ccc(C2=NOC3CC(CO)CC23)cc1C(=O)Nc1cc2c(cc1C(=O)Nc1ccc(F)c(C(F)(F)F)c1)CCCC2 (single isomer, unassigned) [Example 14, N-(4-fluoro-3-(trifluoromethyl)phenyl)-3-(5-(5-(hydroxymethyl)-3a,5,6,6a-tetrahydro-4H-cyclopenta[d]-isoxazol-3-yl)-2-methoxybenzamido)-5,6,7,8-tetrahydronaphthalene-2-carboxamide]	
22 nM	COc1ccc(-c2cc(CC(=O)NCC3CCC3)ccc2F)cc1C(=O)Nc1cc2c(cc1C(=O)Nc1ccc(F)c(C(F)(F)F)c1)CCCC2 [Example 9, 3-(5′-(2-((cyclobutylmethyl)amino)-2-oxoethyl)-2′-fluoro-4-methoxy-[1,1′-biphenyl]-3-carboxamido)-N-(4-fluoro-3-(trifluoromethyl)phenyl)-5,6,7,8-tetrahydronaphthalene-2-carboxamide]	
19 nM	COc1ccc(C2=NOC3CC(CO)CC23)cc1C(=O)Nc1cc2c(cc1C(=O)Nc1ccc(F)c(C(F)(F)F)c1)CCCC2 (single isomer, unassigned) [Example 13, N-(4-fluoro-3-(trifluoromethyl)phenyl)-3-(5-(5-(hydroxymethyl)-3a,5,6,6a-tetrahydro-4H-cyclopenta[d]-isoxazol-3-yl)-2-methoxybenzamido)-5,6,7,8-tetrahydronaphthalene-2-carboxamide]	
62 nM	COc1ccc(-c2cc([C@H](OC(=O)NC3CC(F)(F)C3)C(F)(F)F)ccc2F)cc1C(=O)Nc1cc2c(cc1C(=O)Nc1ccc(F)c(C(F)(F)F)c1)CCCC2 [Example 7, (S)-2,2,2-trifluoro-1-(6-fluoro-3′-((3-((4-fluoro-3-(trifluoro-methyl)phenyl)carbamoyl)-5,6,7,8-tetra-hydronaphthalen-2-yl)carbamoyl)-4′-methoxy-[1,1′-biphenyl]-3-yl)ethyl (3,3-difluorocyclo-butyl)carbamate]	
2200 nM	COc1ccc(N2CCCS2(=O)=O)cc1C(=O)Nc1cc2c(cc1C(=O)Nc1ccc(F)c(C(F)(F)F)c1)CCCC2 [Example 20, 3-(5-(1,1-dioxidoisothiazolidin-2-yl)-2-methoxybenzamido)-N-(4-fluoro-3-(trifluoromethyl)-phenyl)-5,6,7,8-tetrahydronaphthalene-2-carboxamide]	
15 nM	COc1ccc(-c2cc([C@H](OC(=O)NC3CCC3)C(F)(F)F)ccc2F)cc1C(=O)Nc1cc2c(cc1C(=O)Nc1ccc(F)c(C(F)(F)F)c1)CCCC2 [Example 6, (S)-2,2,2-trifluoro-1-(6-fluoro-3′-((3-((4-fluoro-3-(trifluoromethyl)phenyl)carbamoyl)-5,6,7,8-tetrahydronaphthalen-2-yl)carbamoyl)-4′-methoxy-[1,1′-biphenyl]-3-yl)ethyl cyclobutylcarbamate]	
22 nM	COc1ccc(-c2cc([C@H](OC(=O)NC3CCC3)C(F)(F)F)ccc2F)cc1C(=O)Nc1cc2c(cc1C(=O)Nc1ccc(F)c(C(F)(F)F)c1)CCCC2=O [Example 17, (S)-2,2,2-trifluoro-1-(6-fluoro-3′-((3-(4-fluoro-3-(trifluoromethyl)phenyl)carbamoyl)-8-oxo-5,6,7,8-tetrahydronaphthalen-2-yl)carbamoyl)-4′-methoxy-[1,1′-biphenyl]-3-yl)ethyl cyclobutylcarbamate]	
